These results are taken from US9199946B2, “Pyrimidinone carboxamide inhibitors of endothelial lipase” (BRISTOL-MYERS SQUIBB COMPANY, priority 2012, dated 2015).

Like-named read-outs stand apart in the source and are kept apart here.

One may read the IC50 as the concentration that inhibits the measured activity by half.

The assay has as its target T1, Endothelial lipase (EL) (Homo sapiens, UniProt Q9Y5X9).
T1 construct: HT-1080 cells, which were transformed by RAGE technology (Athersys) to overexpress endogenous EL; endogenous in cells; conditioned medium used as the enzyme source
T1 sequence (Q9Y5X9 21-500): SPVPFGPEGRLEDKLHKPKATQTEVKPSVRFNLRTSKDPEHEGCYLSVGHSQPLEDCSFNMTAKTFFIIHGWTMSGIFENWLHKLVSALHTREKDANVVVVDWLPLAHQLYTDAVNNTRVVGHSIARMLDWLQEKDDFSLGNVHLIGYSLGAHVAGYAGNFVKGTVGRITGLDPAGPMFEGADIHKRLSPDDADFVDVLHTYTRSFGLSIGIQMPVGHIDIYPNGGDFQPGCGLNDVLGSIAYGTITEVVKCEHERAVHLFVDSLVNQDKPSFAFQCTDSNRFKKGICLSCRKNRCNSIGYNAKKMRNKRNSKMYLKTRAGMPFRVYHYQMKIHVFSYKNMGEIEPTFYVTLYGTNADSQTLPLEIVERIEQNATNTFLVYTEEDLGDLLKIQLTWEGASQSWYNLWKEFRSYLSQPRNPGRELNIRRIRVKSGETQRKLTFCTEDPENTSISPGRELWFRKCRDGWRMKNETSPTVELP
Description: Endothelial lipase (EL) enzymatic assay with fluorescent substrate A10070 in DMPG vesicles. It counts as biochemical. A digest of the protocol:
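The enzyme source was conditioned medium from HT-1080 cells engineered to overexpress endogenous EL. It was preincubated with compound for 20 min at 37 °C in 50 mM HEPES pH 8.0, 50 mM NaCl, 1 mM CaCl2. Reactions started with DMPG vesicles carrying FRET substrate A10070 (mole fraction 0.05). The rate was taken from the linear slope of fluorescence (ex 488/em 530 nm) over 10 min.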

Setting [1] is: range observed in the EL assay, read-out: EL IC50 values.
[2] abbreviates: conditioned media from HT-1080 cells overexpressing endogenous EL, 20 min preincubation at 37° C., read-out: EL IC50.

As to `COc1ccc2c(c1)CCCC2NC(=O)c1[nH]c(=O)[nH]c(=O)c1N` (single isomer, unassigned; enantiomer a) [Example 194, 5-amino-N-(6-methoxy-1,2,3,4-tetrahydronaphthalen-1-yl)-2,6-dioxo-1,2,3,6-tetrahydropyrimidine-4-carboxamide (Enantiomer A)], the IC50 under setting [1] was not above 10 µM.

In the case of `Nc1c(C(=O)NC2CCN(c3ncccc3Cl)C2)[nH]c(=O)[nH]c1=O` (stereo not drawn) [Example 186, 5-amino-N-(1-(3-chloropyridin-2-yl)pyrrolidin-3-yl)-2,6-dioxo-1,2,3,6-tetrahydropyrimidine-4-carboxamide], the IC50 runs as follows: under setting [2], 0.042 µM; under setting [1], not above 10 µM.

Turning to `Nc1c(C(=O)N[C@H]2CC[C@@H](c3ccccc3)C2)[nH]c(=O)[nH]c1=O` [Example 78, 5-amino-2,6-dioxo-N-((1S,3R)-3-phenylcyclopentyl)-1,2,3,6-tetrahydropyrimidine-4-carboxamide], the IC50 under setting [1] was not above 10 µM.

For the compound `Nc1c(C(=O)NC2CCN(c3ccc(C(F)(F)F)cn3)C2)[nH]c(=O)[nH]c1=O` (stereo not drawn) [Example 190, 5-amino-2,6-dioxo-N-(1-(5-(trifluoromethyl)pyridin-2-yl)pyrrolidin-3-yl)-1,2,3,6-tetrahydropyrimidine-4-carboxamide], the IC50 by setting is: under setting [2], 0.276 µM; under setting [1], not above 10 µM.

Consider `COc1ccc(C2CCC(NC(=O)c3[nH]c(=O)[nH]c(=O)c3N)C2)cc1` (stereo not drawn) [Example 107, 5-amino-N-(3-(4-methoxyphenyl)cyclopentyl)-2,6-dioxo-1,2,3,6-tetrahydropyrimidine-4-carboxamide], for which the IC50 under setting [1] was not above 10 µM.

With `O=C(N[C@H]1CC[C@@H](c2ccccc2)CC1)c1[nH]c(=O)[nH]c(=O)c1NCc1ccccn1` [Example 225, 2,6-dioxo-N-(cis-4-phenylcyclohexyl)-5-(pyridin-2-ylmethylamino)-1,2,3,6-tetrahydropyrimidine-4-carboxamide], the IC50 under setting [2] was determined as 5.28 µM and the IC50 under setting [1] is not above 10 µM.

Turning to `O=C(N[C@@H]1CCCc2c1cccc2C(F)(F)F)c1[nH]c(=O)[nH]c(=O)c1O` [Example 254, (R)-5-hydroxy-2,6-dioxo-N-(5-(trifluoromethyl)-1,2,3,4-tetrahydronaphthalen-1-yl)-1,2,3,6-tetrahydropyrimidine-4-carboxamide], the IC50 under setting [1] is not above 10 µM.

For the compound `Nc1c(C(=O)N[C@H]2CC[C@H](c3ccc(Cl)c(Cl)c3)C2)[nH]c(=O)[nH]c1=O` [Example 69, 5-amino-N-((1S,3S)-3-(3,4-dichlorophenyl)cyclopentyl)-2,6-dioxo-1,2,3,6-tetrahydropyrimidine-4-carboxamide], the IC50 under setting [1] is not above 10 µM.

As for `O=C(NC1CCCc2c(CCc3ccccc3)cccc21)c1[nH]c(=O)[nH]c(=O)c1O` (stereo not drawn) [Example 284, 5-hydroxy-2,6-dioxo-N-(5-phenethyl-1,2,3,4-tetrahydronaphthalen-1-yl)-1,2,3,6-tetrahydropyrimidine-4-carboxamide], the IC50 under setting [1] is not above 10 µM.

As to `Nc1c(C(=O)N[C@H]2CC[C@@H](c3ccc(-c4ccc(CO)cc4)cc3)C2)[nH]c(=O)[nH]c1=O` [Example 177, 5-amino-N-((1S,3R)-3-(4′-(hydroxymethyl)biphenyl-4-yl)cyclopentyl)-2,6-dioxo-1,2,3,6-tetrahydropyrimidine-4-carboxamide], the IC50 under setting [1] is not above 10 µM.

For `CC(C)CCNc1c(C(=O)N[C@H]2CC[C@@H](c3ccccc3)CC2)[nH]c(=O)[nH]c1=O` [Example 210, 5-(isopentylamino)-2,6-dioxo-N-(cis-4-phenylcyclohexyl)-1,2,3,6-tetrahydropyrimidine-4-carboxamide], the IC50 under setting [1] was not above 10 µM.

As to `Nc1c(C(=O)N[C@H]2CC[C@@H](NC(=O)c3cccc(OCc4ccccc4)c3)CC2)[nH]c(=O)[nH]c1=O` [Example 122, 5-amino-N-(cis-4-(3-(benzyloxy)benzamido)cyclohexyl)-2,6-dioxo-1,2,3,6-tetrahydropyrimidine-4-carboxamide], the IC50 under setting [1] was not above 10 µM.

For `O=C(N[C@H]1CCCc2ccccc21)c1[nH]c(=O)[nH]c(=O)c1OCCO` [Example 299, (S)-5-(2-Hydroxyethoxy)-2,6-dioxo-N-(1,2,3,4-tetrahydronaphthalen-1-yl)-1,2,3,6-tetrahydropyrimidine-4-carboxamide], the IC50 runs as follows: under setting [2], 9.56 µM; under setting [1], not above 10 µM.

Turning to `Cc1c(-c2ccc([C@H]3CC[C@@H](NC(=O)c4[nH]c(=O)[nH]c(=O)c4N)C3)cc2)cnn1-c1ccccc1` [Example 165, 5-amino-N-((1R,3S)-3-(4-(5-methyl-1-phenyl-1H-pyrazol-4-yl)phenyl)cyclopentyl)-2,6-dioxo-1,2,3,6-tetrahydropyrimidine-4-carboxamide], under setting [1], the IC50 was not above 10 µM.

Take `Nc1c(C(=O)NC2CCC(c3ccccc3)CC2)[nH]c(=O)[nH]c1=O` (stereo not drawn) [Example 2, 5-amino-2,6-dioxo-N-(4-phenylcyclohexyl)-1,2,3,6-tetrahydropyrimidine-4-carboxamide]: under setting [1], the IC50 was not above 10 µM.

Take `Nc1c(C(=O)N[C@@H]2CCc3c(-c4ccccc4)cccc32)[nH]c(=O)[nH]c1=O` [Example 137, (R)-5-amino-2,6-dioxo-N-(4-phenyl-2,3-dihydro-1H-inden-1-yl)-1,2,3,6-tetrahydropyrimidine-4-carboxamide]: the IC50 under setting [2] worked out at 0.848 µM and the 50% inhibitory concentration (IC50) under setting [1] is not above 10 µM.

With `Nc1c(C(=O)N[C@H]2CCCc3ccc(C(F)(F)F)cc32)[nH]c(=O)[nH]c1=O` [Example 54, (S)-5-amino-2,6-dioxo-N-(7-(trifluoromethyl)-1,2,3,4-tetrahydronaphthalen-1-yl)-1,2,3,6-tetrahydropyrimidine-4-carboxamide], the IC50 is, setting by setting: under setting [2], 7.16 µM; under setting [1], not above 10 µM.

As for `O=C(N[C@H]1CC[C@@H](c2ccccc2)CC1)c1[nH]c(=O)[nH]c(=O)c1NCc1cccnc1` [Example 209, 2,6-dioxo-N-(cis-4-phenylcyclohexyl)-5-(pyridin-3-ylmethylamino)-1,2,3,6-tetrahydropyrimidine-4-carboxamide], the IC50 reads like this: under setting [2], 0.512 µM; under setting [1], not above 10 µM.

On to `O=C(N[C@H]1CC[C@@H](c2ccccc2)CC1)c1[nH]c(=O)[nH]c(=O)c1NCCc1ccccc1Cl` [Example 221, 5-(2-chlorophenethylamino)-2,6-dioxo-N-(cis-4-phenylcyclohexyl)-1,2,3,6-tetrahydropyrimidine-4-carboxamide], for which, under setting [1], the IC50 was not above 10 µM.

On to `O=C(N[C@H]1CC[C@@H](c2ccccc2)CC1)c1[nH]c(=O)[nH]c(=O)c1NCc1ccncc1` [Example 227, 2,6-dioxo-N-(cis-4-phenylcyclohexyl)-5-(pyridin-4-ylmethylamino)-1,2,3,6-tetrahydropyrimidine-4-carboxamide], for which the IC50 under setting [1] was not above 10 µM.

Turning to `Nc1c(C(=O)NC2Cc3ccccc3C2Cc2ccccc2)[nH]c(=O)[nH]c1=O` (stereo not drawn) [Example 8, 5-amino-N-(1-benzyl-2,3-dihydro-1H-inden-2-yl)-2,6-dioxo-1,2,3,6-tetrahydropyrimidine-4-carboxamide], the IC50 under setting [1] is not above 10 µM.

`Nc1c(C(=O)N[C@@H]2CCc3c(OCc4ccccc4)cccc32)[nH]c(=O)[nH]c1=O` [Example 86, (R)-5-ammo-N-(4-(benzyloxy)-2,3-dihydro-1H-inden-1-yl)-2,6-dioxo-1,2,3,6-tetrahydropyrimidine-4-carboxamide]: the IC50 under setting [1] is not above 10 µM.

With `Nc1c(C(=O)NC2CCOc3ccccc32)[nH]c(=O)[nH]c1=O` (stereo not drawn) [Example 32, 5-amino-N-(chroman-4-yl)-2,6-dioxo-1,2,3,6-tetrahydropyrimidine-4-carboxamide], the IC50 by setting is: under setting [2], 3.74 µM; under setting [1], not above 10 µM.

In the case of `Nc1c(C(=O)N[C@H]2CC[C@@H](OCc3ccccc3)CC2)[nH]c(=O)[nH]c1=O` [Example 95, 5-amino-N-(cis-4-(benzyloxy)cyclohexyl)-2,6-dioxo-1,2,3,6-tetrahydropyrimidine-4-carboxamide], the IC50 under setting [1] was not above 10 µM.

For the compound `Nc1c(C(=O)N[C@H]2CC[C@@H](c3ccc(Cl)c(Cl)c3)C2)[nH]c(=O)[nH]c1=O` [Example 67, 5-amino-N-((1S,3R)-3-(3,4-dichlorophenyl)cyclopentyl)-2,6-dioxo-1,2,3,6-tetrahydropyrimidine-4-carboxamide], the IC50 under setting [1] was not above 10 µM.

With `Nc1c(C(=O)N[C@H]2CC[C@@H](c3ccccc3)CC2)[nH]c(=O)[nH]c1=O` [Example 3, 5-amino-2,6-dioxo-N-(cis-4-phenylcyclohexyl)-1,2,3,6-tetrahydropyrimidine-4-carboxamide], under setting [1], the IC50 is not above 10 µM.

`COc1cccc2c1C(NC(=O)c1[nH]c(=O)[nH]c(=O)c1N)CCC2` (stereo not drawn) [Example 66, 5-amino-N-(8-methoxy-1,2,3,4-tetrahydronaphthalen-1-yl)-2,6-dioxo-1,2,3,6-tetrahydropyrimidine-4-carboxamide]: under setting [1], the IC50 is not above 10 µM.

For `O=C(N[C@@H]1CC[C@H](c2ccccc2)c2ccccc21)c1[nH]c(=O)[nH]c(=O)c1O` [Example 250, 5-hydroxy-2,6-dioxo-N-((1R,4R)-4-phenyl-1,2,3,4-tetrahydronaphthalen-1-yl)-1,2,3,6-tetrahydropyrimidine-4-carboxamide], the IC50 under setting [1] was not above 10 µM.
